Reference: PubChem BioAssay AID230 (DTP/NCI, 2004)
“And” between values parts separate entries of the source, which are not always exact repeats. Equal entries are not always repeated. Inconclusive results and toxic doses are left out. The calls were made as follows: active = survival T/C of 150% or more; inactive = T/C below 125% in these data.

Test system: C3H/He mice, Gardner lymphosarcoma 6C3HED ip, survival T/C
Experiment: NCI In Vivo Anticancer Drug Screen. Data for tumor model Lymphosarcoma Gardner 6C3HED (intraperitoneal) in C3H/He mice
Details: vehicle: saline, higher = longer survival
Method: The antitumor activity of compounds was measured in mice bearing transplantable tumors. Survival or tumor size were measured and the results are expressed as the measurement made in the treated group (T) divided by the measurement made in the vehicle treated control group (C). The tumor model used in this assay is Lymphosarcoma Gardner 6C3HED (intraperitoneal) in C3H/He mice

[1] = endpoint: survival time, mean or median, dose: 6.25 mg/kg/injection, schedule: Q01DX010 (ip)
[2] = endpoint: survival time, mean or median, dose: 12.5 mg/kg/injection, schedule: Q01DX010 (ip)
[3] = endpoint: survival time, mean or median, dose: 50.0 mg/kg/injection, schedule: Q01DX010 (ip)
[4] = endpoint: survival time, mean or median, dose: 25.0 mg/kg/injection, schedule: Q01DX010 (ip)
[5] = endpoint: survival time, mean or median, dose: 100.0 mg/kg/injection, schedule: Q01DX010 (ip)
[6] = endpoint: survival time, mean or median, dose: 200.0 mg/kg/injection, schedule: Q01DX010 (ip)
[7] = endpoint: survival time, mean or median, dose: 1.25 mg/kg/injection, schedule: Q01DX010 (ip)
[8] = endpoint: survival time, mean or median, dose: 2.5 mg/kg/injection, schedule: Q01DX010 (ip)
[9] = endpoint: survival time, mean or median, dose: 5.0 mg/kg/injection, schedule: Q01DX010 (ip)
[10] = endpoint: survival time, mean or median, dose: 0.25 mg/kg/injection, schedule: Q01DX010 (ip)
[11] = endpoint: survival time, mean or median, dose: 0.5 mg/kg/injection, schedule: Q01DX010 (ip)
[12] = endpoint: survival time, mean or median, dose: 1.0 mg/kg/injection, schedule: Q01DX010 (ip)
[13] = endpoint: survival time, mean or median, dose: 2.0 mg/kg/injection, schedule: Q01DX010 (ip)
[14] = endpoint: survival time, mean or median, dose: 10.0 mg/kg/injection, schedule: Q01DX010 (ip)
[15] = endpoint: survival time, mean or median, dose: 20.0 mg/kg/injection, schedule: Q01DX010 (ip)
[16] = endpoint: survival time, mean or median, dose: 16.0 mg/kg/injection, schedule: Q01DX010 (ip)
[17] = endpoint: survival time, mean or median, dose: 32.0 mg/kg/injection, schedule: Q01DX010 (ip)
[18] = endpoint: survival time, mean or median, dose: 4.0 mg/kg/injection, schedule: Q01DX010 (ip)
[19] = endpoint: survival time, mean or median, dose: 62.5 mg/kg/injection, schedule: Q01DX010 (ip)
[20] = endpoint: survival time, mean or median, dose: 125.0 mg/kg/injection, schedule: Q01DX010 (ip)
[21] = endpoint: survival time, mean or median, dose: 250.0 mg/kg/injection, schedule: Q01DX010 (ip)
[22] = endpoint: survival time, mean or median, dose: 500.0 mg/kg/injection, schedule: Q01DX010 (ip)

Measured: T/C

O=P1(N(CCCl)CCCl)NCCCO1 (configuration not stated)
active: endpoint: median survival time, dose: 20.0 mg/kg/injection, schedule: Q01DX003 (ip) 163 % of control | endpoint: median survival time, dose: 40.0 mg/kg/injection, schedule: Q01DX003 (ip) 209 % of control and 724 % of control | endpoint: median survival time, dose: 80.0 mg/kg/injection, schedule: Q01DX003 (ip) 190 % of control and 722 % of control
inactive: endpoint: median survival time, dose: 12.5 mg/kg/injection, schedule: Q01DX007 (ip) 116 % of control | endpoint: median survival time, dose: 25.0 mg/kg/injection, schedule: Q01DX007 (ip) 116 % of control | [1] 100 % of control | [2] 115 % of control | [3] 115 % of control

Nc1nc(=O)n(C2CC(O)C(CO)O2)cc1Br (configuration not stated)
inactive: [4] 107 % of control | [3] 107 % of control | [5] 96 % of control and 107 % of control | [6] 100 % of control and 107 % of control

COC1C(OC(=O)/C=C/C=C/C=C/C=C/C(=O)O)CCC2(CO2)C1C1(C)OC1CC=C(C)C (configuration not stated)
inactive: [2] 102 % of control | [4] 110 % of control | [3] 110 % of control | [5] 100 % of control

Cc1cc2nc3c(=O)[nH]c(=O)nc-3n(CC(O)C(O)C(O)C(O)CO)c2cc1C (configuration not stated)
inactive: [2] 97 % of control | [3] 100 % of control | [5] 87 % of control and 100 % of control

N#[N+]c1cnc([O-])[nH]c1=O
inactive: [7] 123 % of control | [9] 106 % of control
active: [8] 150 % of control

COc1cccc2c1C(=O)c1c(O)c3c(c(O)c1C2=O)C[C@@](O)(C(C)=O)C[C@@H]3OC1CC(N)C(O)C(C)O1 (some centres not stated)
active: [12] 300 % of control | [13] 173 % of control
inactive: endpoint: survival time, mean or median, dose: 0.13 mg/kg/injection, schedule: Q01DX010 (ip) 92 % of control | [10] 111 % of control | [11] 119 % of control

CC1CCOS(=O)O1 (configuration not stated)
inactive: [8] 93 % of control | [9] 93 % of control | [14] 92 % of control and 103 % of control | [15] 89 % of control and 96 % of control

C[C@H]1C(=O)O[C@@H]2CCN3CC=C(COC(=O)[C@](C)(O)[C@@]1(C)O)[C@H]23
inactive: endpoint: survival time, mean or median, dose: 3.13 mg/kg/injection, schedule: Q01DX010 (ip) 100 % of control and 107 % of control | [1] 93 % of control and 103 % of control | [2] 100 % of control and 103 % of control | [4] 111 % of control

[N-]=[N+]=CC(=O)CCC(N)C(=O)O (configuration not stated)
inactive: endpoint: survival time, mean or median, dose: 0.03 mg/kg/injection, schedule: Q01DX010 (ip) 100 % of control and 105 % of control | endpoint: survival time, mean or median, dose: 0.05 mg/kg/injection, schedule: Q01DX010 (ip) 100 % of control and 118 % of control | endpoint: survival time, mean or median, dose: 0.1 mg/kg/injection, schedule: Q01DX010 (ip) 118 % of control and 120 % of control

C[N+](C)(C)c1ncnc2nc[nH]c12
inactive: endpoint: survival time, mean or median, dose: 15.0 mg/kg/injection, schedule: Q01DX010 (ip) 92 % of control | endpoint: survival time, mean or median, dose: 30.0 mg/kg/injection, schedule: Q01DX010 (ip) 96 % of control

CN(C)c1ccc(/C=C/c2ccnc3ccccc23)cc1
inactive: [16] 90 % of control | [17] 93 % of control

CCCCNc1ncnc2c1cnn2C
inactive: [18] 90 % of control and 100 % of control | endpoint: survival time, mean or median, dose: 8.0 mg/kg/injection, schedule: Q01DX010 (ip) 95 % of control and 100 % of control | [16] 90 % of control and 100 % of control | [17] 90 % of control and 100 % of control

Cn1cnc([N+](=O)[O-])c1Sc1ncnc2nc[nH]c12
inactive: [14] 86 % of control | [15] 93 % of control | endpoint: survival time, mean or median, dose: 40.0 mg/kg/injection, schedule: Q01DX010 (ip) 86 % of control | endpoint: survival time, mean or median, dose: 80.0 mg/kg/injection, schedule: Q01DX010 (ip) 86 % of control

c1ccc(CCSc2ncnc3nc[nH]c23)cc1
inactive: [19] 96 % of control | [20] 96 % of control and 100 % of control | [21] 93 % of control and 96 % of control | [22] 93 % of control and 96 % of control

CS(=O)(=O)OCC(O)C(O)C(O)C(O)COS(C)(=O)=O (configuration not stated)
inactive: [4] 94 % of control | [3] 100 % of control | [5] 94 % of control and 100 % of control | [6] 100 % of control and 105 % of control | endpoint: survival time, mean or median, dose: 400.0 mg/kg/injection, schedule: Q01DX010 (ip) 110 % of control

O=CN(O)CC(=O)O
inactive: [19] 96 % of control | [20] 89 % of control | [21] 107 % of control | [22] 100 % of control

C[C@@H]1C[C@H]2CC[C@H](O2)[C@H](C)C(=O)O[C@@H](C)C[C@@H]2CC[C@@H](O2)[C@@H](C)C(=O)O[C@H](C)C[C@H]2CC[C@H](O2)[C@H](C)C(=O)O[C@@H](C)C[C@@H]2CC[C@@H](O2)[C@@H](C)C(=O)O1
inactive: [2] 100 % of control | [4] 92 % of control | [3] 96 % of control

Nc1nc(=S)c2ncn(C3OC(CO)C(O)C3O)c2[nH]1 (configuration not stated)
inactive: endpoint: median survival time, dose: 0.5 mg/kg/injection, schedule: Q01DX009 (ip) 114 % of control | endpoint: median survival time, dose: 1.0 mg/kg/injection, schedule: Q01DX009 (ip) 100 % of control | endpoint: median survival time, dose: 2.0 mg/kg/injection, schedule: Q01DX009 (ip) 105 % of control | endpoint: median survival time, dose: 4.0 mg/kg/injection, schedule: Q01DX009 (ip) 94 % of control | endpoint: median survival time, dose: 8.0 mg/kg/injection, schedule: Q01DX009 (ip) 96 % of control | [11] 119 % of control | [12] 112 % of control and 115 % of control | [13] 100 % of control and 111 % of control | [18] 96 % of control

CSc1ncnc2nc[nH]c12
inactive: [4] 100 % of control | [3] 93 % of control and 100 % of control | [5] 93 % of control and 100 % of control | [6] 93 % of control and 103 % of control

CCCSc1ncnc2nc[nH]c12
inactive: [20] 95 % of control | [21] 95 % of control

Nc1c(Br)cc2c(c1Br)Cc1cc([N+](=O)[O-])ccc1-2
inactive: endpoint: survival time, mean or median, dose: 7.8 mg/kg/injection, schedule: Q01DX010 (ip) 92 % of control

COS(C)(=O)=O
active: [4] 300 % of control | [3] 300 % of control
inactive: [2] 119 % of control

CC1CN1P(=S)(N1CC1C)N1CC1C (configuration not stated)
inactive: [7] 103 % of control | [8] 100 % of control and 103 % of control | [9] 92 % of control and 107 % of control | [14] 100 % of control and 103 % of control | [15] 107 % of control

Nc1ncnc2c1ncn2C1OC(COC=O)C(O)C1O (configuration not stated)
inactive: endpoint: median survival time, dose: 13.8 mg/kg/injection, schedule: Q01DX003 (ip) 90 % of control | endpoint: median survival time, dose: 13.8 mg/kg/injection, schedule: Q12HX006 (ip) 104 % of control | endpoint: median survival time, dose: 27.6 mg/kg/injection, schedule: Q01DX003 (ip) 104 % of control | endpoint: median survival time, dose: 27.6 mg/kg/injection, schedule: Q12HX006 (ip) 104 % of control | endpoint: median survival time, dose: 55.2 mg/kg/injection, schedule: Q01DX003 (ip) 104 % of control | endpoint: median survival time, dose: 55.2 mg/kg/injection, schedule: Q12HX006 (ip) 120 % of control

S=P(N1CC1)(N1CC1)N1CC1
inactive: endpoint: survival time, mean or median, dose: 0.75 mg/kg/injection, schedule: Q01DX010 (ip) 100 % of control | endpoint: survival time, mean or median, dose: 1.5 mg/kg/injection, schedule: Q01DX010 (ip) 104 % of control and 105 % of control | endpoint: survival time, mean or median, dose: 3.0 mg/kg/injection, schedule: Q01DX010 (ip) 100 % of control and 110 % of control | endpoint: survival time, mean or median, dose: 6.0 mg/kg/injection, schedule: Q01DX010 (ip) 104 % of control and 115 % of control

Nc1ncnc2c1ccn2C1OC(CO)C(O)C1O (configuration not stated)
inactive: [10] 90 % of control

Nc1ncnc2c1ncn2C1OC(COP(=O)(O)O)C(O)C1O (configuration not stated)
inactive: endpoint: median survival time, dose: 18.3 mg/kg/injection, schedule: Q01DX003 (ip) 100 % of control | endpoint: median survival time, dose: 18.3 mg/kg/injection, schedule: Q12HX006 (ip) 109 % of control | endpoint: median survival time, dose: 36.6 mg/kg/injection, schedule: Q01DX003 (ip) 95 % of control | endpoint: median survival time, dose: 36.6 mg/kg/injection, schedule: Q12HX006 (ip) 111 % of control | endpoint: median survival time, dose: 73.2 mg/kg/injection, schedule: Q01DX003 (ip) 90 % of control | endpoint: median survival time, dose: 73.3 mg/kg/injection, schedule: Q12HX006 (ip) 104 % of control
